In patent publication US20140045823A1 (Neurocrine Biosciences, Inc., priority 2012, published 2014) one finds EC50 data, which are given here for 23 compounds.

pEC50: −log10 of the molar value.

The target in the test is T1, human GPR119 (Homo sapiens, UniProt Q8TDV5).
T1 construct: expression vector for human GPR119 cDNA (Acc. No. NP_848566); expressed in transfected cells; Min-6/hGPR119
T1 sequence (Q8TDV5 1-335): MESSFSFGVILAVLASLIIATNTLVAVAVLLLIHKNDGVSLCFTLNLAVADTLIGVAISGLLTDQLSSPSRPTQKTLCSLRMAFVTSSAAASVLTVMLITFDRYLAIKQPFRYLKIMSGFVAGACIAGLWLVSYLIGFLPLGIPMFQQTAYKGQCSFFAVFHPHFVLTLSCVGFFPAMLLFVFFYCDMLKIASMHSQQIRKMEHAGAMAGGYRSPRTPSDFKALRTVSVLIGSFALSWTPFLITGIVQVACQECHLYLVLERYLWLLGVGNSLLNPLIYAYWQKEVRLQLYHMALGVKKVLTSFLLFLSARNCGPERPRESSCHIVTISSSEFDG
In words: AlphaScreen cAMP assay in MIN6 cells stably transfected with human GPR119. It is filed as cell-based. Particulars: Min-6/hGPR119 cells, 45 min at room temperature. The method in brief: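 MIN6 cells stably expressing human GPR119, seeded 10000/well and grown 24 h, were exposed to compound in pH 7.4 buffer with 0.5 mM IBMX, 0.1% BSA and 1% DMSO for 45 min at room temperature. Intracellular cAMP then measured by AlphaScreen.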
For orientation: Alpha assays give light when donor and acceptor beads are brought close together.
A word on the pEC50: it is the EC50 on a negative log10 scale, so that one unit is a factor of ten. Low readings indicate a high EC50, high ones a low EC50. `COC[C@H]1CCCN1C(=O)c1ccc(-c2ncc(C(=O)N(C3CC3)C3CCN(C(=O)OC(C)(C)C)CC3)cn2)cc1` [Example 203, 4-(Cyclopropyl-{2-[4-(2-methoxymethyl-pyrrolidine-1-carbonyl)-phenyl]-pyrimidine-5-carbonyl}-amino)-piperidine-1-carboxylic acid tert-butyl ester] showed a pEC50 of 6.53. Under `COC[C@@H]1CCCN1C(=O)c1ccc(-c2ncc(C(=O)N(C3CC3)C3CCN(C(=O)OC(C)(C)C)CC3)cn2)cc1` [Example 204, 4-(Cyclopropyl-{2-[4-(2-methoxymethyl-pyrrolidine-1-carbonyl)-phenyl]-pyrimidine-5-carbonyl}-amino)-piperidine-1-carboxylic acid tert-butyl ester] stands 6.52; under `CN(C(=O)c1ccc(-c2ncc(C(=O)N(C3CC3)C3CCN(C(=O)OC(C)(C)C)CC3)cn2)cc1)C1CCOCC1` [Example 205, 4-[Cyclopropyl-(2-{4-[methyl-(tetrahydro-pyran-4-yl)-carbamoyl]-phenyl}-pyrimidine-5-carbonyl)-amino]-piperidine-1-carboxylic acid tert-butyl ester], 6.46; under `CN(CC1(C)COC1)C(=O)c1ccc(-c2ncc(C(=O)N(C3CC3)C3CCN(C(=O)OC(C)(C)C)CC3)cn2)cc1` [Example 206, 4-[Cyclopropyl-(2-{4-[methyl-(3-methyl-oxetan-3-ylmethyl)-carbamoyl]-phenyl}-pyrimidine-5-carbonyl)-amino]-piperidine-1-carboxylic acid tert-butyl ester], 6.51. As to `CC(C)(C)OC(=O)N1CCC(N(C(=O)c2cnc(-c3ccc(C(=O)NCCn4ccc(C5CC5)n4)cc3)nc2)C2CC2)CC1` [Example 207, 4-[Cyclopropyl-(2-{4-[2-(3-cyclopropyl-pyrazol-1-yl)-ethylcarbamoyl]-phenyl}-pyrimidine-5-carbonyl)-amino]-piperidine-1-carboxylic acid tert-butyl ester], the negative-log EC50 (pEC50) was 6.43. The compound `CC(C)(C)OC(=O)N1CCC(N(C(=O)c2cnc(-c3ccc(C(=O)Nc4ccn[nH]4)cc3)nc2)C2CC2)CC1` [Example 208, 4-(Cyclopropyl-{2-[4-(2H-pyrazol-3-ylcarbamoyl)-phenyl]-pyrimidine-5-carbonyl}-amino)-piperidine-1-carboxylic acid tert-butyl ester] showed a pEC50 of 6.74. `CN(Cc1ccncc1)C(=O)Cc1ccc(-c2ncc(C(=O)N(C3CC3)C3CCN(C(=O)OC(C)(C)C)CC3)cn2)cc1` [Example 209, 4-[Cyclopropyl-(2-{4-[(methyl-pyridin-4-ylmethyl-carbamoyl)-methyl]-phenyl}-pyrimidine-5-carbonyl)-amino]-piperidine-1-carboxylic acid tert-butyl ester]: the negative logarithm of the EC50 (pEC50) was 6.51. The compound `CC(O)c1cccc(NC(=O)Cc2ccc(-c3ncc(C(=O)N(C4CC4)C4CCN(C(=O)OC(C)(C)C)CC4)cn3)cc2)c1` (centres unmarked) [Example 210, 4-{Cyclopropyl-[2-(4-{[3-(1-hydroxy-ethyl)-phenylcarbamoyl]-methyl}-phenyl)-pyrimidine-5-carbonyl]-amino}-piperidine-1-carboxylic acid tert-butyl ester] gave a negative logarithm of the EC50 (pEC50) of 6.23. Under `CC(C)(C)OC(=O)N1CCC(N(C(=O)c2cnc(-c3ccc(CC(=O)N4CCC[C@@H]4C#N)cc3)nc2)C2CC2)CC1` [Example 211, 4-[(2-{4-[2-(2-Cyano-pyrrolidin-1-yl)-2-oxo-ethyl]-phenyl}-pyrimidine-5-carbonyl)-cyclopropyl-amino]-piperidine-1-carboxylic acid tert-butyl ester] stands 6.25; under `COC[C@@H]1CCCN1C(=O)Cc1ccc(-c2ncc(C(=O)N(C3CC3)C3CCN(C(=O)OC(C)(C)C)CC3)cn2)cc1` [Example 212, 4-[Cyclopropyl-(2-{4-[2-(2-methoxymethyl-pyrrolidin-1-yl)-2-oxo-ethyl]-phenyl}-pyrimidine-5-carbonyl)-amino]-piperidine-1-carboxylic acid tert-butyl ester], 6.46. Take `CC(C)(C)OC(=O)N1CCC(N(C(=O)c2cnc(-c3ccc(CC(=O)NC4CCOCC4)cc3)nc2)C2CC2)CC1` [Example 213, 4-[Cyclopropyl-(2-{4-[(tetrahydro-pyran-4-ylcarbamoyl)-methyl]-phenyl}-pyrimidine-5-carbonyl)-amino]-piperidine-1-carboxylic acid tert-butyl ester]: the pEC50 was 6.28. As for `CC(C)(C)OC(=O)N1CCC(N(C(=O)c2cnc(-c3ccc(CC(=O)N4CCC[C@H]4C#N)cc3)nc2)C2CC2)CC1` [Example 214, 4-[(2-{4-[2-(2-Cyano-pyrrolidin-1-yl)-2-oxo-ethyl]-phenyl}-pyrimidine-5-carbonyl)-cyclopropyl-amino]-piperidine-1-carboxylic acid tert-butyl ester], the negative-log EC50 (pEC50) is 6.38. The compound `CC(C)(C)OC(=O)N1CCC(N(C(=O)c2cnc(-c3ccc(CC(=O)NCc4ccccn4)cc3)nc2)C2CC2)CC1` [Example 215, 4-{Cyclopropyl-[2-(4-{[(pyridin-2-ylmethyl)-carbamoyl]-methyl}-phenyl)-pyrimidine-5-carbonyl]-amino}-piperidine-1-carboxylic acid tert-butyl ester] had a pEC50 of 6.41. `COC1CN(C(=O)Cc2ccc(-c3ncc(C(=O)N(C4CC4)C4CCN(C(=O)OC(C)(C)C)CC4)cn3)cc2)C1` [Example 216, 4-[Cyclopropyl-(2-{4-[2-(3-methoxy-azetidin-1-yl)-2-oxo-ethyl]-phenyl}-pyrimidine-5-carbonyl)-amino]-piperidine-1-carboxylic acid tert-butyl ester] gave a negative logarithm of the EC50 (pEC50) of 6.37.

For the compound `CC(C)(C)OC(=O)N1CCC(N(C(=O)c2cnc(-c3ccc(CC(=O)Nc4cccc(CO)c4)cc3)nc2)C2CC2)CC1` [Example 217, 4-[Cyclopropyl-(2-{4-[(3-hydroxymethyl-phenylcarbamoyl)-methyl]-phenyl}-pyrimidine-5-carbonyl)-amino]-piperidine-1-carboxylic acid tert-butyl ester], the pEC50 was 6.26. The compound `CN(CC#N)C(=O)Cc1ccc(-c2ncc(C(=O)N(C3CC3)C3CCN(C(=O)OC(C)(C)C)CC3)cn2)cc1` [Example 218, 4-[(2-{4-[(Cyanomethyl-methyl-carbamoyl)-methyl]-phenyl}-pyrimidine-5-carbonyl)-cyclopropyl-amino]-piperidine-1-carboxylic acid tert-butyl ester] had a pEC50 of 6.67. `CC(C)(C)OC(=O)N1CCC(N(C(=O)c2cnc(-c3ccc(CC(=O)NCC4CCCCO4)cc3)nc2)C2CC2)CC1` (centres unmarked) [Example 219, 4-{Cyclopropyl-[2-(4-{[(tetrahydro-pyran-2-ylmethyl)-carbamoyl]-methyl}-phenyl)-pyrimidine-5-carbonyl]-amino}-piperidine-1-carboxylic acid tert-butyl ester] showed a pEC50 of 6.43. Turning to `CN(CCOCC1CC1)C(=O)c1ccc(-c2ncc(C(=O)N(C3CC3)C3CCN(C(=O)OC(C)(C)C)CC3)cn2)cc1` [Example 220, 4-[Cyclopropyl-(2-{4-[(2-cyclopropylmethoxy-ethyl)-methyl-carbamoyl]-phenyl}-pyrimidine-5-carbonyl)-amino]-piperidine-1-carboxylic acid tert-butyl ester], the negative logarithm of the EC50 (pEC50) was 6.74. Compound `CN(CC#N)C(=O)c1ccc(-c2ncc(C(=O)N(C3CC3)C3CCN(C(=O)OC(C)(C)C)CC3)cn2)cc1` [Example 221, 4-({2-[4-(Cyanomethyl-methyl-carbamoyl)-phenyl]-pyrimidine-5-carbonyl}-cyclopropyl-amino)-piperidine-1-carboxylic acid tert-buyl ester] gave a pEC50 of 6.96. Take `CN(C(=O)c1ccc(-c2ncc(C(=O)N(C3CC3)C3CCN(C(=O)OC(C)(C)C)CC3)cn2)cc1)C1CCCOC1` (centres unmarked) [Example 222, 4-[Cyclopropyl-(2-{4-[methyl-(tetrahydro-pyran-3-yl)-carbamoyl]-phenyl}-pyrimidine-5-carbonyl)-amino]-piperidine-1-carboxylic acid tert-butyl ester]: the pEC50 is 6.26. Regarding `CN(CC(C)(C)O)C(=O)c1ccc(-c2ncc(C(=O)N(C3CC3)C3CCN(C(=O)OC(C)(C)C)CC3)cn2)cc1` [Example 223, 4-[Cyclopropyl-(2-{4-[(2-hydroxy-2-methyl-propyl)-methyl-carbamoyl]-phenyl}-pyrimidine-5-carbonyl)-amino]-piperidine-1-carboxylic acid tert-butyl ester], the negative-log EC50 (pEC50) was 6.20. `CC(C)(C)OC(=O)N1CCC(N(C(=O)c2cnc(-c3ccc(C(=O)NCc4ccccn4)cc3)nc2)C2CC2)CC1` [Example 224, 4-[Cyclopropyl-(2-{4-[(pyridin-2-ylmethyl)-carbamoyl]-phenyl}-pyrimidine-5-carbonyl)-amino]-piperidine-1-carboxylic acid tert-butyl ester] had a negative logarithm of the EC50 (pEC50) of 6.80. `CC(C)(C)OC(=O)N1CCC(N(C(=O)c2cnc(-c3ccc(C(=O)NCC4CCCCO4)cc3)nc2)C2CC2)CC1` (centres unmarked) [Example 225, 4-[Cyclopropyl-(2-{4-[(tetrahydro-pyran-2-ylmethyl)-carbamoyl]-phenyl}-pyrimidine-5-carbonyl)-amino]-piperidine-1-carboxylic acid tert-butyl ester] had a pEC50 of 6.73.
